Patent US5583115A, “Dialkyltiacumicin compounds” (Abbott Laboratories, priority 1995, dated 1996)
In brackets after ≈: the same amount, converted by molar mass.

Experiments:
[1] = tested on: Peptostreptococcus asaccharolyticus; assay: MIC agar dilution, anaerobic bacteria; type: cell-based; conditions: Culture # 1777
Propionibacterium acnes = assay: MIC agar dilution, anaerobic bacteria; type: cell-based; conditions: Culture # 1775
C. difficile = assay: MIC agar dilution, anaerobic bacteria; type: cell-based
P. species = assay: MIC agar dilution, anaerobic bacteria; type: cell-based; conditions: Culture # 1776
Mycobacterium smegmatis = assay: MIC agar dilution, aerobic and facultative bacteria; conditions: Culture # 5171
Veillonella parvula = assay: MIC agar dilution, anaerobic bacteria; type: cell-based; conditions: Culture # 2479
Nocardia asteroides = assay: MIC agar dilution, aerobic and facultative bacteria; conditions: Culture # 5173
C. ramosum = assay: MIC agar dilution, anaerobic bacteria; type: cell-based; conditions: Culture # 2482
E. coli = assay: MIC agar dilution, aerobic and facultative bacteria; type: cell-based
Staphylococcus aureus = assay: as above
Pseudomonas aeruginosa = assay: as above
Candida albicans = assay: as above; conditions: Culture # 3622
[2] = tested on: anaerobic pathogens, in particular Clostridium species; assay: In vitro activity against anaerobic pathogens, Wilkins-Chalgren agar; type: cell-based; conditions: MIC, Table 2
Source text: It has now been established that novel antimicrobial agents may be obtained by chemical modification of tiacumicins, which are antibiotics isolated from the fermentation broth and mycelium of Dactylosporangium aurantiacum subsp. hamdenensis subsp. nov. Tiacumicin antibiotics are described in U.S. Pat. No. 4,918,174 (issued Apr. 17, 1990 and incorporated herein by reference), and comprise the compounds tiacumicin A, tiacumicin B, tiacumicin C, tiacumicin D, tiacumicin E and tiacumicin F. The compounds of the present invention, which are derivatives of the above tiacumicins, are found to have in vitro activity against a variety of bacterial pathogens and in particular against Clostridium when evaluated in an assay utilizing Wilkins-Chalgren agar in anaerobic conditions. It is therefore expected that these compounds will be useful in the treatment of bacterial infections in mammals, and in particular in the treatment of certain instances of colitis.

Bacteriodes fragilis = assay: MIC agar dilution, anaerobic bacteria; type: cell-based
Fusobacterium nucleatum = assay: MIC agar dilution, anaerobic bacteria; type: cell-based; conditions: Culture # 2478
S. epidermidis = assay: MIC agar dilution, aerobic and facultative bacteria; conditions: Culture # 1666
Clostridium perfringens = assay: microbe, parasite or virus in culture; type: cell-based
P. cepacia = assay: MIC agar dilution, aerobic and facultative bacteria; conditions: Culture # 1684
Micrococcus luteus = assay: as above
B. disiens = assay: MIC agar dilution, anaerobic bacteria; type: cell-based; conditions: Culture # 1763
Enterococcus faecium = assay: MIC agar dilution, aerobic and facultative bacteria; conditions: Culture # 1668
B. loescheii = assay: MIC agar dilution, anaerobic bacteria; type: cell-based; conditions: Culture # 1767
B. thetaiotaomicron = assay: MIC agar dilution, anaerobic bacteria; type: cell-based
Streptococcus bovis = assay: MIC agar dilution, aerobic and facultative bacteria; conditions: Culture # 1699
Klebsiella pneumoniae = assay: as above; conditions: Culture # 2518
Enterobacter aerogenes = assay: as above; conditions: Culture # 1677
Providencia stuartii = assay: as above; conditions: Culture # 1831
Fusobacterium species = assay: MIC agar dilution, anaerobic bacteria; type: cell-based; conditions: Culture # 1770
P. magnus = assay: MIC agar dilution, anaerobic bacteria; type: cell-based; conditions: Culture # 1778
S. pyogenes = assay: MIC agar dilution, aerobic and facultative bacteria
[3] = tested on: Acinetobacter calcoaceticus; assay: as above; conditions: Culture # 1845
P. anaerobius = assay: MIC agar dilution, anaerobic bacteria; type: cell-based; conditions: Culture # 1780
Streptococcus agalactiae = assay: MIC agar dilution, aerobic and facultative bacteria; conditions: Culture # 1670

Structure (SMILES): CCc1c(Cl)c(OC)c(Cl)c(OC)c1C(=O)OC1C(C)OC(OCC2=CC=CCC(O)C(C)=CC(CC)C(OC3OC(C)(C)C(OC(=O)C(C)C)C(O)C3O)C(C)=CC(C)=CCC(C(C)O)OC2=O)C(OC)C1O (stereo not shown) [Example 2, 3"', 5"'-Di-O-methyltiacumicin B]
- MIC [1]: > 2 µg/mL
- MIC (Propionibacterium acnes): > 2 µg/mL
- MIC (C. difficile; Culture # 1496): 0.25 µg/mL (≈ 0.23 µM)
- MIC (C. difficile; Culture # 1497): 0.5 µg/mL (≈ 0.46 µM)
- MIC (C. difficile; Culture # 1774): 0.25 µg/mL (≈ 0.23 µM)
- MIC (C. difficile; Culture # 2025): 0.5 µg/mL (≈ 0.46 µM)
- MIC (C. difficile; Culture # 2480): 0.25 µg/mL (≈ 0.23 µM)
- MIC (C. difficile; Culture # 2528): 0.5 µg/mL (≈ 0.46 µM)
- MIC (C. difficile; Culture # 2529): 0.5 µg/mL (≈ 0.46 µM)
- MIC (P. species): > 2 µg/mL
- MIC (Mycobacterium smegmatis): 1.56 µg/mL (≈ 1.44 µM)
- MIC (Veillonella parvula): > 2 µg/mL
- MIC (Nocardia asteroides): 0.39 µg/mL (≈ 0.359 µM)
- MIC (C. ramosum): > 2 µg/mL
- MIC (E. coli; DC-2, Culture # 1674): > 100 µg/mL
- MIC (E. coli; H560, Culture # 1675): > 100 µg/mL
- MIC (E. coli; Juhl, Culture # 1673): > 100 µg/mL
- MIC (E. coli; KNK437, Culture # 1676): > 100 µg/mL
- MIC (E. coli; SS, Culture # 2489): > 100 µg/mL
- MIC (Staphylococcus aureus; Culture # 1662, brain heart infusion agar, 37° C., 20 hours): 100 µg/mL (≈ 92.1 µM)
- MIC (Staphylococcus aureus; Culture # 1664): 50 µg/mL (≈ 46 µM)
- MIC (Staphylococcus aureus; Culture # 1690): 100 µg/mL (≈ 92.1 µM)
- MIC (Staphylococcus aureus; Culture # 2124): > 100 µg/mL
- MIC (Staphylococcus aureus; Culture # 2130): > 100 µg/mL
- MIC (Staphylococcus aureus; Culture # 2498): > 100 µg/mL
- MIC (Staphylococcus aureus; cipro res., Culture # 3384): 100 µg/mL (≈ 92.1 µM)
- MIC (Pseudomonas aeruginosa; Culture # 1679): > 100 µg/mL
- MIC (Pseudomonas aeruginosa; Culture # 1680): > 100 µg/mL
- MIC (Pseudomonas aeruginosa; Culture # 1681): > 100 µg/mL
- MIC (Pseudomonas aeruginosa; Culture # 1682): 100 µg/mL (≈ 92.1 µM)
- MIC (Pseudomonas aeruginosa; cipro R, Culture # 1919): > 100 µg/mL
- MIC (Pseudomonas aeruginosa; cipro R, Culture # 1920): > 100 µg/mL
- MIC (Candida albicans): > 100 µg/mL
- activity against anaerobic pathogens [2]: substantial activity against anaerobic pathogens and in particular against Clostridium species
- MIC (Bacteriodes fragilis; Culture # 1756, Wilkins-Chalgren agar, 37° C., 48 hours): > 2 µg/mL
- MIC (Bacteriodes fragilis; Culture # 1757): > 2 µg/mL
- MIC (Bacteriodes fragilis; Culture # 1758): > 2 µg/mL
- MIC (Bacteriodes fragilis; Culture # 1999): > 2 µg/mL
- MIC (Fusobacterium nucleatum): > 2 µg/mL
- MIC (S. epidermidis): 50 µg/mL (≈ 46 µM)
- MIC (Clostridium perfringens; Culture # 1771): 0.06 µg/mL (≈ 0.0552 µM)
- MIC (Clostridium perfringens; Culture # 1772): 0.06 µg/mL (≈ 0.0552 µM)
- MIC (Clostridium perfringens; Culture # 1773): 0.06 µg/mL (≈ 0.0552 µM)
- MIC (P. cepacia): > 100 µg/mL
- MIC (Micrococcus luteus; Culture # 2493): 0.1 µg/mL (≈ 0.0921 µM)
- MIC (Micrococcus luteus; Culture # 2517): 0.1 µg/mL (≈ 0.0921 µM)
- MIC (B. disiens): > 2 µg/mL
- MIC (Enterococcus faecium): > 100 µg/mL
- MIC (B. loescheii): > 2 µg/mL
- MIC (B. thetaiotaomicron; Culture # 1764): > 2 µg/mL
- MIC (B. thetaiotaomicron; Culture # 1765): > 2 µg/mL
- MIC (B. thetaiotaomicron; Culture # 1766): > 2 µg/mL
- MIC (Streptococcus bovis): > 100 µg/mL
- MIC (Klebsiella pneumoniae): > 100 µg/mL
- MIC (Enterobacter aerogenes): > 100 µg/mL
- MIC (Providencia stuartii): > 100 µg/mL
- MIC (Fusobacterium species): > 2 µg/mL
- MIC (P. magnus): > 2 µg/mL
- MIC (S. pyogenes; Culture # 1671): > 100 µg/mL
- MIC (S. pyogenes; const., Culture # 1672): 25 µg/mL (≈ 23 µM)
- MIC (S. pyogenes; inducible, Culture # 2548): 25 µg/mL (≈ 23 µM)
- MIC [3]: > 100 µg/mL
- MIC (P. anaerobius): > 2 µg/mL
- MIC (Streptococcus agalactiae): > 100 µg/mL
